Assay results reported in patent US12187723B2 (BRISTOL-MYERS SQUIBB COMPANY, priority 2019, dated 2025).

What was measured:
human TLR8 = target: T1, human TLR8 (Homo sapiens, UniProt Q9NR97); test: TLR8 inhibition reporter assay (HEK-Blue SEAP); format: cell-based; settings: HEK-Blue cells overexpressing human TLR8, R848 15.9 μM, 22 hour incubation
T1 construct: host or cells: HEK-Blue cells
T1 sequence (Q9NR97 27-1041): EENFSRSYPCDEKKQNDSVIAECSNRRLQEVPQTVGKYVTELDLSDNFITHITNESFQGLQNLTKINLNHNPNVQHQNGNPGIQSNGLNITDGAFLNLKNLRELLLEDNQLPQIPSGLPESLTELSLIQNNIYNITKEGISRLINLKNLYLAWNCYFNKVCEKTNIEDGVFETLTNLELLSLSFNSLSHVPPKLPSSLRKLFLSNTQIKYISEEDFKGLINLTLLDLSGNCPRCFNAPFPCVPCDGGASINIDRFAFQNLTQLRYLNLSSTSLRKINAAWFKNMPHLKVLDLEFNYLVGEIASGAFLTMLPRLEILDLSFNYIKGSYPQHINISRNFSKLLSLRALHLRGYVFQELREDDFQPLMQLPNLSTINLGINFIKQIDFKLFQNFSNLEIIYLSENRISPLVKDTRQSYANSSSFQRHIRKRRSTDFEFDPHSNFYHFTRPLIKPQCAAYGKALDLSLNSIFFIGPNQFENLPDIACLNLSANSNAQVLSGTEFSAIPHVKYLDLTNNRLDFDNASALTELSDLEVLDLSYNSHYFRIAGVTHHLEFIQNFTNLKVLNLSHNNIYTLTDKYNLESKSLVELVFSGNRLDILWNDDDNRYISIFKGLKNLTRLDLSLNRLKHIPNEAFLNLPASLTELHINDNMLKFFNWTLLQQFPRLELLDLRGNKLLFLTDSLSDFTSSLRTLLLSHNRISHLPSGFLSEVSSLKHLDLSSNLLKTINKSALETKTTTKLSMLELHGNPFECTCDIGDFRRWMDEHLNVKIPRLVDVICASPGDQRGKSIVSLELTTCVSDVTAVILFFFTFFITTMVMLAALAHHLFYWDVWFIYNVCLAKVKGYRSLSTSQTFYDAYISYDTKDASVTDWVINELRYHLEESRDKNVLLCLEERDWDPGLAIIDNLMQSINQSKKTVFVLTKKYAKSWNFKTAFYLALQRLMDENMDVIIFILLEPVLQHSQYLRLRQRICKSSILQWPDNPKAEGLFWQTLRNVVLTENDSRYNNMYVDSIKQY
In short: (§1)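 HEK-Blue cells overexpressing human TLR7, TLR8 or TLR9 carry a SEAP reporter driven by NF-κB/AP-1 sites. Compounds (0.05 nM–50 μM) were preincubated 30 min at room temperature, then cells were stimulated with gardiquimod 7.5 μM (TLR7), R848 15.9 μM (TLR8) or ODN2006 5 nM (TLR9) for 22 h at 37 °C.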

human TLR9 = target: T2, human TLR9 (Homo sapiens, UniProt Q9NR96); test: TLR9 inhibition reporter assay (HEK-Blue SEAP); format: cell-based; settings: HEK-Blue cells overexpressing human TLR9, ODN2006 5 nM, 22 hour incubation
T2 construct: host or cells: HEK-Blue cells
T2 sequence (Q9NR96 26-1032): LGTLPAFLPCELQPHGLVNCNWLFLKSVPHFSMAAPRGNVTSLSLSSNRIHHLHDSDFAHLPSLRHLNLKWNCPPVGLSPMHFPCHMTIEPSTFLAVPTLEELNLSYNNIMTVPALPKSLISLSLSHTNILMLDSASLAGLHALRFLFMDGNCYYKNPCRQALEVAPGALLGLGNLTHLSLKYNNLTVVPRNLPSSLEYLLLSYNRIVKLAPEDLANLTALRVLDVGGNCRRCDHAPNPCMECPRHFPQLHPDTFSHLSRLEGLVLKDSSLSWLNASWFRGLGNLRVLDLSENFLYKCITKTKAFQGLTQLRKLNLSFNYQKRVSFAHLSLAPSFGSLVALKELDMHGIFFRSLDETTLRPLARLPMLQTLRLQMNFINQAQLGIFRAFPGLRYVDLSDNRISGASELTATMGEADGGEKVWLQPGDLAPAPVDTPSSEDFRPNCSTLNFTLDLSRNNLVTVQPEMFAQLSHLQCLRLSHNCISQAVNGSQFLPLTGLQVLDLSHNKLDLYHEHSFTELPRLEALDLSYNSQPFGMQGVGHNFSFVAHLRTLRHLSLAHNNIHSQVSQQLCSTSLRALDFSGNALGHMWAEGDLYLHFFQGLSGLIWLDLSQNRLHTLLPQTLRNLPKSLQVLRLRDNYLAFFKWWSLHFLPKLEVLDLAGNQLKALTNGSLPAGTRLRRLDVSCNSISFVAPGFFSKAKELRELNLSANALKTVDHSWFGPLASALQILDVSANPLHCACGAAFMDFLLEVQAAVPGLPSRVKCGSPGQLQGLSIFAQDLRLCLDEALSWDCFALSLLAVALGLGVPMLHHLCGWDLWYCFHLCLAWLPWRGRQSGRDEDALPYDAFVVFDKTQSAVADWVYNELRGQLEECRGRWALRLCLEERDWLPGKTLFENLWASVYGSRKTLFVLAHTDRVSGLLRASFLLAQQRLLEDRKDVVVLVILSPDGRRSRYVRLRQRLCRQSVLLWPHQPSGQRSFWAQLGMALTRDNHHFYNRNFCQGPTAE
In short: as §1

Structure (SMILES)	IC50 (human TLR8) [nM]	IC50 (human TLR9) [nM]
COc1cc(-c2cc3[nH]c(=O)n([C@H]4CCCN(C(C)C)C4)c3cc2C(C)C)cn2ncnc12 [Example 120, (S)-6-isopropyl-1-(1-isopropylpiperidin-3-yl)-5-(8-methoxy-[1,2,4]triazolo[1,5-a]pyridin-6-yl)-1,3-dihydro-2H-benzo[d]imidazol-2-one]	0.8	1940
CCN1CCC(n2c(=O)[nH]c3cc(-c4cc(OC)c5ncnn5c4)c(C)cc32)CC1 [Example 9, 1-(1-ethylpiperidin-4-yl)-5-(8-methoxy-[1,2,4]triazolo[1,5-a]pyridin-6-yl)-6-methyl-1,3-dihydro-2H-benzo[d]imidazol-2-one]	92.7	638
COc1cc(-c2cc3[nH]c(=O)n(C4CCN(CC5CCOC5)CC4)c3cc2C(C)C)cn2ncnc12 (stereo not drawn) [Example 160, 6-isopropyl-5-(8-methoxy-[1,2,4]triazolo[1,5-a]pyridin-6-yl)-1-(1-((tetrahydrofuran-3-yl)methyl)piperidin-4-yl)-1,3-dihydro-2H-benzo[d]imidazol-2-one]	5.62	14300
Cc1cc2c(cc1-c1cc(C)c3ncnn3c1)[nH]c(=O)n2C1CCN(C)CC1 [Example 3, 6-methyl-5-(8-methyl-[1,2,4]triazolo[1,5-a]pyridin-6-yl)-1-(1-methylpiperidin-4-yl)-1,3-dihydro-2H-benzo[d]imidazol-2-one]	36.8	4640
COc1cc(-c2cc3[nH]c(=O)n([C@@H]4CCCN(CC(C)(C)C)C4)c3cc2C(C)C)cn2ncnc12 [Example 153, (R)-6-isopropyl-5-(8-methoxy-[1,2,4]triazolo[1,5-a]pyridin-6-yl)-1-(1-neopentylpiperidin-3-yl)-1,3-dihydro-2H-benzo[d]imidazol-2-one]	2.27	13100
Cc1cc2c(cc1-c1cc(C)c3ncnn3c1)[nH]c(=O)n2[C@H]1CCCN(C(=O)CN(C)C)C1 [Example 103, (S)-1-(1-(dimethylglycyl)piperidin-3-yl)-6-methyl-5-(8-methyl-[1,2,4]triazolo[1,5-a]pyridin-6-yl)-1,3-dihydro-2H-benzo[d]imidazol-2-one]	205	4720
COc1cc(-c2cc3[nH]c(=O)n([C@H]4CCCN(CC5CCOC5)C4)c3cc2C(C)C)cn2ncnc12 (stereo partly drawn) [Example 126, 6-isopropyl-5-(8-methoxy-[1,2,4]triazolo[1,5-a]pyridin-6-yl)-1-((3S)-1-((tetrahydrofuran-3-yl)methyl)piperidin-3-yl)-1,3-dihydro-2H-benzo[d]imidazol-2-one]	3.64	27800
COc1cc(-c2cc3[nH]c(=O)n(C4CCCN(C(=O)CN(C)C)C4)c3cc2C)cn2ncnc12 (stereo not drawn) [Example 105, 1-(1-(dimethylglycyl)piperidin-3-yl)-5-(8-methoxy-[1,2,4]triazolo[1,5-a]pyridin-6-yl)-6-methyl-1,3-dihydro-2H-benzo[d]imidazol-2-one]	318	7940
COc1cc(-c2cc3[nH]c(=O)n([C@@H]4CCCN(CC5CCC5)C4)c3cc2C(C)C)cn2ncnc12 [Example 140, (R)-1-(1-(cyclobutylmethyl)piperidin-3-yl)-6-isopropyl-5-(8-methoxy-[1,2,4]triazolo[1,5-a]pyridin-6-yl)-1,3-dihydro-2H-benzo[d]imidazol-2-one]	3.92	6460
COc1cc(-c2cc3[nH]c(=O)n([C@H]4CCCN(C)C4)c3cc2C(C)C)cn2ncnc12 [Example 119, (S)-6-isopropyl-5-(8-methoxy-[1,2,4]triazolo[1,5-a]pyridin-6-yl)-1-(1-methylpiperidin-3-yl)-1,3-dihydro-2H-benzo[d]imidazol-2-one]	2.37	26300
Cc1cc2c(cc1-c1cc(C)c3ncnn3c1)[nH]c(=O)n2[C@@H]1CCCN(CC(=O)N(C)C)C1 [Example 95, (R)—N,N-dimethyl-2-(3-(6-methyl-5-(8-methyl-[1,2,4]triazolo[1,5-a]pyridin-6-yl)-2-oxo-2,3-dihydro-1H-benzo[d]imidazol-1-yl)piperidin-1-yl)acetamide]	83.4	14600
COc1cc(-c2cc3[nH]c(=O)n([C@H]4CCCN(CC5CCOCC5)C4)c3cc2C(C)C)cn2ncnc12 [Example 125, (S)-6-isopropyl-5-(8-methoxy-[1,2,4]triazolo[1,5-a]pyridin-6-yl)-1-(1-((tetrahydro-2H-pyran-4-yl)methyl)piperidin-3-yl)-1,3-dihydro-2H-benzo[d]imidazol-2-one]	2.37	7720
COc1cc(-c2cc3[nH]c(=O)n([C@@H]4CCCN(C)C4)c3cc2C(C)C)cn2ncnc12 [Example 136, (R)-6-isopropyl-5-(8-methoxy-[1,2,4]triazolo[1,5-a]pyridin-6-yl)-1-(1-methylpiperidin-3-yl)-1,3-dihydro-2H-benzo[d]imidazol-2-one]	2.01	14900
COc1cc(-c2cc3[nH]c(=O)n(C4CCN(C5CCOC5)CC4)c3cc2C(C)C)cn2ncnc12 (stereo not drawn) [Example 162, 6-isopropyl-5-(8-methoxy-[1,2,4]triazolo[1,5-a]pyridin-6-yl)-1-(1-(tetrahydrofuran-3-yl)piperidin-4-yl)-1,3-dihydro-2H-benzo[d]imidazol-2-one]	6.56	> 50000
COc1cc(-c2cc3[nH]c(=O)n([C@H]4CCCN(C5COC5)C4)c3cc2C(C)C)cn2ncnc12 [Example 123, (S)-6-isopropyl-5-(8-methoxy-[1,2,4]triazolo[1,5-a]pyridin-6-yl)-1-(1-(oxetan-3-yl)piperidin-3-yl)-1,3-dihydro-2H-benzo[d]imidazol-2-one]	5.56	> 50000
COc1cc(-c2cc3[nH]c(=O)n([C@H]4CCCN(CC5CC5)C4)c3cc2C(C)C)cn2ncnc12 [Example 127, (S)-1-(1-(cyclopropylmethyl)piperidin-3-yl)-6-isopropyl-5-(8-methoxy-[1,2,4]triazolo[1,5-a]pyridin-6-yl)-1,3-dihydro-2H-benzo[d]imidazol-2-one]	2.8	15600
CCCN(CCC)[C@H]1CC[C@@H](n2c(=O)[nH]c3cc(-c4cc(OC)c5ncnn5c4)c(CC)cc32)CC1 [Example 168, 1-((1s,4s)-4-(dipropylamino)cyclohexyl)-6-ethyl-5-(8-methoxy-[1,2,4]triazolo[1,5-a]pyridin-6-yl)-1,3-dihydro-2H-benzo[d]imidazol-2-one]	1.53	15200
Cc1cc2c(cc1-c1cc(C)c3ncnn3c1)[nH]c(=O)n2C1CCN(C(=O)CN(C)C)CC1 [Example 101, 1-(1-(dimethylglycyl)piperidin-4-yl)-6-methyl-5-(8-methyl-[1,2,4]triazolo[1,5-a]pyridin-6-yl)-1,3-dihydro-2H-benzo[d]imidazol-2-one]	50.3	2580
